Assay results reported in ChEMBL document CHEMBL5241099, “Targeting mutated GTPase KRAS in tumor therapies” (Eur J Med Chem, 2021).

What was measured:
[1] = Inhibition of ERK phosphorylation in human NCI-H358 cells; type: cell-based
[2] = tested on: GTPase KRas (Homo sapiens), P01116 [G12C]; assay: Binding affinity to KRAS G12C mutant (unknown origin) assessed as covalent bond formation by measuring Kobs/[I] ratio
[3] = Inhibition of ERK phosphorylation in human MIA PaCa-2 cells; type: cell-based
GTPase HRas = GTPase HRas (Homo sapiens, UniProt P01112); assay: Inhibition of GST-tagged HRAS (1 to 166 residues) (unknown origin) assessed as inhibition of mSOS1 mediated nucleotide exchange by [35S]GTPgammaS based liquid scintillation counting method
NIH3T3 = assay: Antiproliferative activity against mouse NIH3T3 cells transfected with HRAS G12V mutant assessed as inhibition of cell growth incubated for 14 days by dissecting microscope based colony counting assay; type: functional; settings: NIH3T3, 336 h
[4] = Inhibition of SOS1/KRAS (unknown origin) protein-protein interaction; parameters: species or system Homo sapiens
GTPase KRas [5] = target: GTPase KRas (Homo sapiens, UniProt P01116, G12C); assay: Inhibition of KRAS G12C mutant in human NCI-H358 cells incubated for 6 hrs by LC-MS/MS analysis; type: cell-based
[6] = Inhibition of Ras GTPase activation in HEK293T cells; type: cell-based, Homo sapiens
GTPase KRas [7] = target: GTPase KRas (Homo sapiens, UniProt P01116, G12V); assay: Binding affinity to GppNHp-tagged KRAS G12V mutant (unknown origin)
SW480 = assay: Antitumor activity against human SW480 cells xenografted in athymic nude mouse assessed as inhibition of tumor growth at 80 mg/kg, po administered 5 days a week for 17 to 20 days relative to control; type: functional; settings: time 17-20 day
HT-1080 = assay: Cytotoxicity against human HT-1080 cells harboring NRAS Q61K mutant assessed as inhibition of cell growth incubated for 72 hrs by celltiter-glo luminescent cell viability assay; type: functional, cell-based; settings: HT-1080, 72 h

Work on C=CC(=O)N1CCN(c2ncnc3c2CCN(c2cc(O)cc4ccccc24)C3)CC1 yielded an IC50 [1] of 7.6 µM.
Compound C=CC(=O)N1CC(NC(=O)COc2ccc(Br)cc2NC(=O)c2cc(C)no2)C1 has a Ratio [2] of 2 M⁻¹ s⁻¹.
For C=CC(=O)N1CCN(c2nc(=O)n(-c3c(C)ccnc3C(C)C)c3nc(-c4c(O)cccc4F)c(F)cc23)[C@@H](C)C1 [SOTORASIB], the IC50 [3] was 0.068 µM.
Work on O=[N+]([O-])c1cc(C(F)(F)F)cc([N+](=O)[O-])c1NNC(=S)Nc1ccc(F)cc1 yielded an IC50 (GTPase HRas) of 100 µM and an IC50 (NIH3T3) of 1.4 µM.
Work on COc1cc2ncnc(N[C@H](C)c3ccccc3)c2cc1OC yielded an IC50 [4] of 1.6 µM.
For C=CC(=O)N1CC(N2CCN(C(=O)CNc3cc(Cl)c(Cl)cc3O)CC2)C1, the IC50 (GTPase KRas [5]) was 50 µM.
Work on Cc1[nH]c2cc(Cl)cc(Cl)c2c1CCN yielded an EC50 [6] of 15.8 µM.
Compound O=C(NCC1COc2ccccc2O1)c1ccco1 (stereo unspecified) has a Kd (GTPase KRas [7]) of 235 µM.
Compound Cc1ccc(NC(=S)NNc2c([N+](=O)[O-])cc(C(F)(F)F)cc2[N+](=O)[O-])cc1Cl has an IC50 (GTPase HRas) of 20 µM, an IC50 (NIH3T3) of 0.5 µM and an inhibition in vivo at 80 mg/kg (SW480) of 40%.
C=CC(=O)N1CC(NC(=O)Cn2cc(C(=O)N3CCc4c(cccc4OC)C3)c3cc(Br)ccc32)C1 showed a Ratio [2] of 230 M⁻¹ s⁻¹.
With C=CC(=O)N1CCN(C(=O)CNc2cc(I)c(Cl)cc2O)CC1 the IC50 (GTPase KRas [5]) was 100 µM.
COc1nc(-c2cccc3c2OCCO3)ccc1Nc1ccc(CN(C)C)cc1 gave an IC50 (HT-1080) of 10 µM.
COc1cc2nc(C)nc(N[C@H](C)c3cc(N)cc(C(F)(F)F)c3)c2cc1O[C@H]1CCOC1 gave an IC50 [4] of 0.005 µM.
